Measured values taken from patent US20180303830A1, “CANCERS EXPRESSING CCR5 AND METHODS OF TREATMENT OF SAME” (THOMAS JEFFERSON UNIVERSITY, priority 2015, published 2018).

What was measured:
SUM159 cells [1] = assay: Lung metastasis of SUM159 cells in SCID mice, photon flux (IVIS); assay type: in vivo
Source text: The CCR5 antagonist, Maraviroc, was previously approved by the US Food and Drug Administration (FDA) for the use in treatment-nave adult […] with CCR5-trophic HIV. In order to determine the role endogenous CCR5 within SUM159 cells in lung metastasis, cells were introduced into SCID immune deficient mice, and tumor volume characterized using the IVIS system. […] (p<0.0001).
FIG. 7. Endogenous CCR5 promotes lung metastases in mice. FIG. 7A Representative timed photon emission of mice injected with SUM159 cells treated with either control or Maraviroc (at 14 mg/kg mouse body, time as shown in weeks). FIG. 7B Mean±SEM of photon flux for 6 animals in control group and 7 animals in maraviroc treatment group shown in 5 weeks. Maraviroc treatment reduces mean lung tumor volume by 98% which detected by photon flux ((3.01±1.16)×10^7 vs (1.05±0.44)×10^8, p=0.063 with Mann-Whitney Test).

FC-IBC-02 cells = assay: Boyden chamber migration and invasion assay in FC-IBC-02 cells; assay type: cell-based, human; conditions: 100 μM, 48 hrs, compared to control; for invasion of FC-IBC-02 cells: matrigel-coated membrane; for migration of FC-IBC-02 cells: noncoated membrane
Method: The effects of CCR5 antagonists (Maraviroc and Vicriviroc) on cell migration and invasion in vitro were examined using matrigel-coated Boyden chamber assay in FC-IBC-02 cells, which are triple-negative, basal-like, cancer stem cell phenotype, and rapidly developed primary tumors and metastasis in vivo. Cells were treated by Maraviroc and Vicriviroc at 100 μM and support the conclusion that CCR5 is highly expressed in basal-like human IBC cells.
In FIG. 3, CCR5 antagonists Maraviroc and Vicriviroc suppress the migration and invasion of FC-IBC-02 cells. FIGS. 3A and 3B depict control and CCR5 antagonists treated cells at equal number were seeded onto the noncoated membrane (migration) and matrigel-coated membrane (invasion). After incubating 48 hrs. the cells crossed the membrane were stained with 0.05% crystal violet. FIGS. 3C and 3D, quantitation of 3A and 3B compared to controls was indicated.

SUM159 cells [2] = assay: Phospho-γH2AX Western-blot of doxorubicin induced DNA damage in SUM159 cells; assay type: cell-based, human; conditions: for doxorubicin induced phospho-γH2AX (DNA damage): 100 μM, SUM159 cells, doxorubicin treatment; for effect on CCR5-mediated DNA repair (phospho-γH2AX western-blot and DNA repair reporter assay): breast cancer cells overexpressing CCR5, doxorubicin and γ-radiation induced DNA damage
Source text: The chemokine receptor CCR5 is normally expressed on the surface of immune cells and served as HIV co-receptor. […] Compared with CCR5− cells, the CCR5+ cells were enriched with DNA damage/repair gene signature. […] Based on the existing theory that the resistance of cancer cells to the chemotherapy and radiation therapy caused by the existence of cancer stem cells, the inhibition of CCR5 by CCR5 antagonists will sensitize the response of breast cancer cells to chemotherapy and radiation therapy, therefore increase the efficiency of DNA damage inducing chemotherapy treatment for CCR5 expressing cancers.
FIG. 9. […] FIG. 9A The CCR5 stable-transfected and vector-control SUM159 cells were illuminated with 6.5 Gy of γ-radiation. The samples were collected at 0.5, 3 and 24 hours after y-radiation. The recruitment of phosphor-γH2AX and the reduction of abundance were faster in CCR5-transfected cells than vector-control cells. FIG. 9B The CCR5 stable-transfected and vector-control SUM159 cells were treated with doxorubicin. […] FIG. 9C CCR5 antagonist increased DNA damage in SUM159 cells. SUM159 cells treated with CCR5 antagonist, Maraviroc and Vicriviroc, both at 100 μM. DNA damage was induced by doxorubicin treatment. There are more doxorubicin induced phospho-γH2AX in Marviroc and Vicriviroc treated groups.

[3] = test system: basal-like breast cancer model; assay: In vivo metastasis in a basal-like breast cancer model; design: species or system mice
Source text: Chemokine CCL5 and its receptor CCR5 play a significant role in cancer progression and metastasis. Metastasis is the primary cause of death in patients with breast cancer. No effective treatments currently exist that are directed specifically to the metastatic process. There is evidence that the CCR5 receptor is expressed in a subset of human breast cancers. Importantly, embodiments disclosed herein support that CCR5 inhibitors previously developed and FDA approved for treatment of HIV, can effectively block breast cancer metastasis in preclinical models, thereby providing for an effective treatment of said metastatic breast cancers. The repurposing of drugs for alternative use in cancer metastasis, drugs that were previously approved by the FDA, may provide a more rapid solution for this deadly disease. Indeed, CCR5 inhibition by the FDA approved CCR5 antagonists Maraviroc and Vicriviroc reduced in vivo metastasis in a basal-like breast cancer model.
Indeed, in studies described herein, CCR5 is sufficient to induce invasiveness of breast cancer cells into matrigel, and metastasis to the lungs of mice. Accordingly, two distinct CCR5 inhibitors, maraviroc and vicriviroc, blocked CCR5 signaling and thereby block migration, invasion and metastasis in mice. […] The dose of CCR5 inhibitor used in these mouse models was the same as the dose used in patients for HIV.

| Compound | photon flux, Mean±SEM (SUM159 cells [1]; 14 mg/kg, 5 weeks, 7 animals, p=0.063 Mann-Whitney vs control) | reduction of mean lung tumor volume detected by photon flux (SUM159 cells [1]; 14 mg/kg, 5 weeks, vs control) | increase in breast cancer lung metastases (photon flux) in the control group compared to the treated group (SUM159 cells [1]; SUM159 cells in SCID mice, administered orally) | percentage of mice with detectable lung metastases (SUM159 cells [1]; SUM159 cells in SCID mice, administered orally, p<0.0001) | invasion of FC-IBC-02 cells (FC-IBC-02 cells) | migration of FC-IBC-02 cells (FC-IBC-02 cells) | doxorubicin induced phospho-γH2AX (DNA damage) (SUM159 cells [2]) | effect on CCR5-mediated DNA repair (phospho-γH2AX western-blot and DNA repair reporter assay) (SUM159 cells [2]) | in vivo metastasis [3] |
| --- | --- | --- | --- | --- | --- | --- | --- | --- | --- |
| Cc1nnc(C(C)C)n1[C@@H]1C[C@H]2CC[C@@H](C1)N2CC[C@H](NC(=O)C1CCC(F)(F)CC1)c1ccccc1 [Maraviroc, 4,4-difluoro-N-{(1S)-3-[3-(3-isopropyl-5-methyl-4H-1,2,4-triazol-4-yl)-8-azabicyclo[3.2.1]oct-8-yl]-1-phenylpropyl}cyclohexanecarboxamide] | (3.01±1.16)×10^7 | 98% | 15 fold | significantly reduced | suppress | suppress | more | abolished these effects | reduced |
| COCC(c1ccc(C(F)(F)F)cc1)N1CCN(C2(C)CCN(C(=O)c3c(C)ncnc3C)CC2)C[C@@H]1C (stereo partly drawn) [Vicriviroc, 5-({4-[(3S)-4-{2-methoxy-1-[4-(trifluoromethyl)phenyl]ethyl}-3-methylpiperazin-1-yl]-4-methylpiperidin-1-yl}carbonyl)-4,6-dimethylpyrimidine] |  |  |  |  | suppress | suppress | more | abolished these effects | reduced |
